Laboratory results published in patent US20100022526A1, “PYRIDAZINE DERIVATIVES, PROCESSES FOR THEIR PREPARATION AND THEIR USE AS FUNGICIDES” (SYNGENTA CROP PROTECTION, INC., priority 2007, published 2010).

How the values were obtained:
Uncinula necator = test: Uncinula necator/grape/preventive (Action against Powdery Mildew on Grape); assay type: in vivo; settings: Erysiphe necator, preventive spray, grape seedlings cv. Gutedel, inoculated one day after application, assessed after 7 days, untreated controls infected over 80%, read-out: inhibit fungal infestation
Method: Uncinula necator/grape/preventive (Action against Powdery Mildew on Grape) 5 weeks old grape seedlings cv. Gutedel are treated with the formulated test compound in a spray chamber. One day after application grape plants are inoculated by shaking plants infected with grape powdery mildew above the test plants. After an incubation period of 7 days at 24° C./22° C. and 70% r. h. under a light regime of 14/10 h (light/dark) the disease incidence is assessed.

Alternaria solani = test: Alternaria solani/tomato/Preventive (Action against Alternaria on Tomato); assay type: in vivo; settings: preventive spray, tomato plants cv. Roter Gnom, inoculated two days after application, assessed after 4 days, untreated controls infected over 80%, read-out: inhibit fungal infestation
Method: (§1) Alternaria solani/tomato/Preventive (Action against Alternaria on Tomato) 4 weeks old tomato plants cv. Roter Gnom are treated with the formulated test compound in a spray chamber. Two days after application tomato plants are inoculated by spraying a spore suspension on the test plants. After an incubation period of 4 days at 22° C./18° C. and 95% r. h. in a greenhouse the disease incidence is assessed.

[1] = test system: Magnaporthe grisea (Pyricularia oryzae); test: whole plant or invertebrate; assay type: in vivo; settings: read-out: inhibit fungal infestation
[2] = test system: Pyrenophora teres (Helminthosporium teres); test: Pyrenophora teres (Helminthosporium teres)/barley/preventive (Action against Net Blotch on Barley); assay type: in vivo; settings: preventive spray, barley plants cv. Regina, inoculated two days after application, assessed after 4 days, untreated controls infected over 80%, read-out: inhibit fungal infestation
Method: Pyrenophora teres (Helminthosporium teres)/barley/preventive (Action against Net Blotch on Barley) 1-week-old barley plants cv. Regina are treated with the formulated test compound in a spray chamber. Two days after application barley plants are inoculated by spraying a spore suspension (2.6×10^4 conidia/ml) on the test plants. After an incubation period of 4 days at 20° C. and 95% r. h. the disease incidence is assessed.

Botrytis cinerea = test: Botrytis cinerea/tomato/preventive (Action against Botrytis on Tomato); assay type: in vivo; settings: preventive spray, tomato plants cv. Roter Gnom, inoculated two days after application, assessed after 3 days, untreated controls infected over 80%, read-out: inhibit fungal infestation
Method: as §1, with “Botrytis cinerea/tomato/preventive (Action” for “Alternaria solani/tomato/Preventive (Action”, “against Botrytis” for “against Alternaria”, “of 3” for “of 4”, “at 20°” for “at 22° C./18°”

Puccinia recondita = test: Puccinia recondita/wheat/preventive (Action against Brown Rust on Wheat); assay type: in vivo; settings: preventive spray, wheat plants cv. Arina, inoculated one day after application, assessed 11 days after inoculation, untreated controls infected over 80%, read-out: inhibits fungal infestation
Method: Puccinia recondita/wheat/preventive (Action against Brown Rust on Wheat) 1 week old wheat plants cv. Arina are treated with the formulated test compound in a spray chamber. One day after application wheat plants are inoculated by spraying a spore suspension (1×105 uredospores/ml) on the test plants. After an incubation period of 1 day at 20° C. and 95% r. h. plants are kept for 10 days 20° C./18° C. (day/night) and 60% r.h. in a greenhouse. The disease incidence is assessed 11 days after inoculation.

Septoria tritici = test: Sentoria tritici/wheat/Preventive (Action against Septoria Leaf Spot on Wheat); assay type: in vivo; settings: Zymoseptoria tritici, preventive spray, wheat plants cv. Riband, inoculated one day after application, assessed 16-18 days after inoculation, untreated controls infected over 80%, read-out: inhibits fungal infestation
Method: Sentoria tritici/wheat/Preventive (Action against Septoria Leaf Spot on Wheat) 2 weeks old wheat plants cv. Riband are treated with the formulated test compound in a spray chamber. One day after application wheat plants are inoculated by spraying a spore suspension (10^6 conidia/ml) on the test plants. After an incubation period of 1 day at 22° C./21° C. and 95% r. h. plants are kept at 22° C./21° C. and 70% r.h. in a greenhouse. The disease incidence is assessed 16-18 days after inoculation.

## COc1nnc(Cl)c(-c2c(F)cc(F)cc2F)c1-c1ccc(Br)cc1 [I.l. 199, 4-(4-bromophenyl)-6-chloro-3-methoxy-5-(2,4,6-trifluorophenyl)-pyridazine]
Uncinula necator
  inhibition at 200 ppm: ≥ 80%
Alternaria solani
  inhibition at 200 ppm: ≥ 80%
other
  melting point: 113 to 119 °C
[1]
  inhibition at 200 ppm: ≥ 80%
[2]
  inhibition at 200 ppm: ≥ 80%
Botrytis cinerea
  inhibition at 200 ppm: ≥ 80%
Puccinia recondita
  inhibition at 200 ppm: ≥ 80%
Septoria tritici
  inhibition at 200 ppm: ≥ 80%
